Measurements reported in PubChem BioAssay AID624491 (Broad Institute, 2012).
Activity calls are given as the source filed them.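 How the source made its calls: active means fitted curve crossing a set activation limit at or below the highest valid dose tested; inconclusive means flat fit at 30 to 70% activation, or poor fit; inactive means the rest, including signal decreases.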

These compounds were tested on D54 ERlucT glycosylation luciferase reporter, luminescence, 24 h (assay: N-linked glycosylation inhibitors, luciferase reporter, dose response, D54 ERlucT cells, luminescence, cherry-picks (AID 624491);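 further: signal gain reflects blocked N-linked glycosylation of a luciferase reporter; actives raise luciferase signal so AC26 marks activators of the reporter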).
In the case of COc1ccc2c(c1)C(=O)N1[C@H]3c4cc(Cl)ccc4OC[C@@H]3[C@H](c3ccccc3)[C@]1(C)C(=O)N2, the AC26 is reported as 1010 nM.
Compound COc1ccc2c(-c3cc4ccc(OCc5ccc(F)cc5)cc4oc3=O)cc(=O)oc2c1 has an AC26 of 4410 nM.
Work on O=C1CC(c2ccccc2F)c2cc3c(cc2N1)CCC3 (stereo not drawn) yielded an AC26 of 938 nM.
Cc1ccc2nc(SCc3nnc(-c4ccccc4[N+](=O)[O-])o3)c(C#N)cc2c1 showed an AC26 of 5790 nM.
Cn1cnc([N+](=O)[O-])c1S(=O)(=O)Oc1ccccc1 gave an AC26 of 1420 nM.
With Cn1cccc1/C=C1\C(=O)NC(=O)N(Cc2ccccc2Cl)C1=O the AC26 was 2490 nM.
For O=C(NCc1ccc(F)c(F)c1)C1Cc2c(-c3ccc4c(c3)OCO4)ccnc2O1 (stereo not drawn), the AC26 was 2750 nM.
Compound COc1ccc(N/C=C/C(=O)c2cc(OC)c(OC)c(OC)c2)cc1 has an AC26 of 28.7 nM.
In the case of COc1ccc(-c2cc3ccccc3oc2=O)cc1NC(=O)c1ccc([N+](=O)[O-])o1, the AC26 is reported as 751 nM.
In the case of O=C(/C=C/c1cn(-c2ccccc2)nc1-c1cccnc1)c1ccco1, the AC26 is reported as 628 nM.
For Cc1cc(Cl)ccc1OCCCC(=O)NO, the AC26 was 2730 nM.
CCOC(=O)c1nnc(-c2ccc(C)cc2)nc1Sc1ccccc1Cl was tested, and the AC26 was 6170 nM.
Compound O=C(CNC(=O)c1ccco1)N=Nc1c(O)n(CCc2ccccc2)c2ccccc12 has an AC26 of 1430 nM.
CN(C)CCCN1C(=O)c2cccc3c([N+](=O)[O-])ccc(c23)C1=O was tested, and the AC26 was 169 nM.
For CCN(c1cccc(C)c1)S(=O)(=O)c1ccc(-c2cc(C)no2)s1, the AC26 was 1270 nM.
Work on O=C(NC1CCCCC1)c1ccc([N+](=O)[O-])o1 yielded an AC26 of 852 nM.
Cc1ccc(CCC(=O)Nc2ncc(Cc3cc(Cl)ccc3Cl)s2)o1 showed an AC26 of 476 nM.
For Cc1cc(C)c2c(N)c3cccc(C)c3nc2n1, the AC26 was 478 nM.
With CC(Nc1nc(-c2ccccc2)nc2ccccc12)c1ccccc1 (stereo not drawn) the AC26 was 80.3 nM.
With CCCCCCC(=O)N(O)C1CC(=O)N(c2ccc(Br)cc2)C1=O (stereo not drawn) the AC26 was 689 nM.
COc1cc2c(cc1OC)-c1c3c(cc4c1[C@@H](C2)N(C)CC4)OCO3 showed an AC26 of 17600 nM.
With CCN(CC)CCCNc1nc2cc(OC)c(OC)cc2c2nc(-c3ccccc3)nn12 the AC26 was 811 nM.
Work on Cn1c(=O)n(C)c2cc(NS(=O)(=O)c3ccc(F)cc3)ccc21 yielded an AC26 of 5290 nM.
For O=C(Nc1cc(Cl)ccc1N1CCOCC1)c1ccc(N2CCCC2=O)cc1, the AC26 was 108 nM.
With CC1(C(=O)Nc2ccc3c(c2)OCO3)Cc2c(-c3ccc4c(c3)OCO4)ccnc2O1 (stereo not drawn) the AC26 was 7650 nM.
Work on CC(C)OCC(O)CN1CCN(CCN2C(=O)c3cccc4cccc(c34)C2=O)CC1 (stereo not drawn) yielded an AC26 of 7110 nM.
In the case of CCOC(=O)c1ccccc1Nc1cn(C(C)=O)c2ccccc12, the AC26 is reported as 1790 nM.
Compound Cc1ccc(C)n1-c1cccc(NC(=O)c2ccccc2)c1 has an AC26 of 8830 nM.
CCOc1ccc(/C=C2\SC(N3CCCCC3)=NC2=O)cc1 gave an AC26 of 1100 nM.
Compound O=C(CCN1C(=O)/C(=C/c2cccs2)SC1=S)N1CCCCC1 has an AC26 of 1220 nM.
Compound COc1cc2c(cc1OC)C(c1ccccc1)N(C(=O)c1cccc(S(C)(=O)=O)c1)CC2 (stereo not drawn) has an AC26 of 193 nM.
With COc1ccc(/C=N/NC(=O)c2sccc2OCc2ccc(F)cc2)cc1OC the AC26 was 1310 nM.
Work on O=C(/C=C/c1cccc([N+](=O)[O-])c1)c1ccc2c(c1)OCCO2 yielded an AC26 of 3330 nM.
For COC(=O)C1=C(c2cc3ccccc3o2)C[C@@H]2CC[C@H]1N2C(=O)N1CCCCC1, the AC26 was 14200 nM.
Compound CCn1c2ccccc2c2cc(NC(=O)c3cc(OC)c(OC)c(OC)c3)ccc21 has an AC26 of 605 nM.
Cc1ccc(C(=O)c2cc([N+](=O)[O-])ccc2N2CCOCC2)cc1C gave an AC26 of 168 nM.
For NC(=O)CC(NC(=O)c1ccc(Br)cc1)c1ccc(NC2CCCCC2)c([N+](=O)[O-])c1 (stereo not drawn), the AC26 was 6020 nM.
With COc1ccc(NC(=O)c2cccc3c(-c4ccc(O)c(OC)c4)coc23)cc1 the AC26 was 13400 nM.
In the case of CCN(CC)S(=O)(=O)c1ccc(-c2nnc(SCC(=O)N3CCc4ccccc43)o2)cc1, the AC26 is reported as 1460 nM.
For O=C(Nc1ccc(Cl)cn1)c1cccc(F)c1, the AC26 was 6980 nM.
With CN(C)CCCN1C(=O)c2cccc3cccc(c23)C1=O the AC26 was 3880 nM.
Compound COc1ccc(-c2cc(C(F)F)n3ncc(C(=O)N4CCc5ccccc54)c3n2)cc1 has an AC26 of 2500 nM.
O=C(Nc1ccccc1O)c1ccc(NC(=O)C2CC2)cc1 was tested, and the AC26 was 4330 nM.
For COc1cc(-c2noc(C)c2-c2ccc(N(C)C)nc2)cc(OC)c1OC, the AC26 was 112 nM.
Compound C=C(C)[C@@]12OC3(c4ccccc4)O[C@@H]1C1[C@@H]4O[C@]4(CO)[C@@H](O)[C@]4(O)C(=O)C(C)=C[C@H]4[C@@]1(O3)[C@H](C)[C@H]2OC(=O)/C=C/C=C/c1ccccc1 (stereo partly drawn) has an AC26 of under 1.2 nM.
In the case of CCN(CC)CCn1c2ccccc2c2nc3ccc([N+](=O)[O-])cc3cc21, the AC26 is reported as 7740 nM.
COc1ccc(Nc2nc(N(C)c3ccccc3)nc(N)c2[N+](=O)[O-])cc1 showed an AC26 of 271 nM.
CN(C)CCc1cc2c(c3c1ccc1ccccc13)OCO2 showed an AC26 of 5320 nM.
COCCN(C(=O)CCl)C(C(=O)NC1CCCCC1)c1ccccc1C (stereo not drawn) gave an AC26 of 3340 nM.
With O=C(CN1C(=O)/C(=C\c2ccc(F)cc2)Oc2ccccc21)N1CCN(c2ccccn2)CC1 the AC26 was 4740 nM.
In the case of COc1ccc(C2C3=C(COC3=O)Oc3cc4c(cc32)OCO4)cc1OC (stereo not drawn), the AC26 is reported as 1780 nM.
With Cc1cccc(/C=N\Nc2cn[nH]c(=O)c2Cl)c1 the AC26 was 4560 nM.
In the case of COc1ccccc1NC(=O)c1cnc(SCC(=O)NCC2CCCO2)n(C)c1=O (stereo not drawn), the AC26 is reported as 1970 nM.
Cc1cc(C)c2nc3nc(C)cc(C)c3c(N)c2c1 gave an AC26 of 145 nM.
Compound COc1ccc2nc(SCC(=O)NC3CCCC3)c(C)cc2c1 has an AC26 of 10200 nM.
CC1CCC2(CC1)NC(=O)N(CC(=O)Nc1ccc3c(c1)CCC3)C2=O (stereo not drawn) showed an AC26 of 826 nM.
Work on Cn1c(=O)n(C)c2cc(S(=O)(=O)N3CCCc4ccccc43)ccc21 yielded an AC26 of 3550 nM.
In the case of Cc1nc(Nc2nc(-c3ccccc3)cc(=O)[nH]2)nc2ccccc12, the AC26 is reported as 1690 nM.
COc1ccc(-c2n[nH]c3c2CN(C(=O)c2ccc(OC)c(OC)c2)CC3)cc1 gave an AC26 of 1760 nM.
Compound Cc1ccc(-c2nc(NCCCN(C)C)c3ccccc3n2)cc1 has an AC26 of 5650 nM.
With Cc1ccnc2nc(C(=O)Nc3cc(Cl)ccc3N3CCOCC3)nn12 the AC26 was 659 nM.
For COc1ccc(/C=N/NC(=O)c2cccc(NC(=O)c3ccccc3Cl)c2)cc1, the AC26 was 5130 nM.
COc1ccc(S(=O)(=O)Nc2c(C(=O)O)[nH]c3ccc(OC)cc23)c(OC)c1 was tested, and the AC26 was 5750 nM.
Work on COc1ccc(C2=NOC(COc3ccc4c(C)cc(=O)oc4c3)C2)c(OC)c1 (stereo not drawn) yielded an AC26 of 1070 nM.
COc1cccc(CNC(=O)COC(=O)c2ccc(-c3ccc(O)cc3)cc2)c1 gave an AC26 of 685 nM.
For COc1cc2c(cc1OC)C(=O)N1[C@H]3c4cc(Cl)ccc4OC[C@@H]3[C@H](c3ccccc3)[C@]1(C)C(=O)N2, the AC26 was 609 nM.
CCOC(=O)C1=CC[C@@H](c2ccncc2)N(S(=O)(=O)c2ccc(C)cc2)C1 showed an AC26 of 12100 nM.
In the case of Cc1ccc(NC(=O)c2cc(S(=O)(=O)N(C)C)ccc2N2CCCC2)cc1F, the AC26 is reported as 109 nM.
COC(=O)c1ccc(C(=O)NC2CC(C)(C)Cc3c2cnn3-c2ccc(F)cc2)nc1 (stereo not drawn) gave an AC26 of 4170 nM.
In the case of CC(=O)C1=C(C)OC(N)=C(C#N)C1c1cc([N+](=O)[O-])ccc1Cl (stereo not drawn), the AC26 is reported as 2900 nM.
Cc1ccc2c(C)c3ccc4ccccc4c3c[n+]2c1 was tested, and the AC26 was 667 nM.
COc1cccc(C2=CC(c3cccs3)n3nnnc3N2)c1 (stereo not drawn) gave an AC26 of 700 nM.
NC(=O)/C=C/C(=O)Nc1ccc(Cl)cc1 showed an AC26 of 15100 nM.
Compound Cc1ccnc(NC(=O)CN2C(=O)NC(C)(c3ccc4ccccc4c3)C2=O)c1 (stereo not drawn) has an AC26 of 11400 nM.
COc1cccc2nc3c(C(=O)NCCN(C)C)cccc3cc12 gave an AC26 of 164 nM.
Work on O=S(=O)(Cc1ccc(Cl)cc1Cl)c1ccc(Cl)cc1 yielded an AC26 of 234 nM.
CCn1c2ccccc2c2cc(/C=N/NC(=O)c3ccc(O)cc3)ccc21 showed an AC26 of 2160 nM.
For CN(C)CCNC(=O)c1cccc2[nH]c(-c3ccncc3)nc12, the AC26 was 894 nM.
With O=C(NCc1ccccc1)C(=O)NCC1COc2ccccc2O1 (stereo not drawn) the AC26 was 13000 nM.
For CCc1ccc(CNC(=O)Cc2ccc(NC(=O)C3=C(C)OCCS3)cc2)cc1, the AC26 was 352 nM.
For CCNc1oc(/C=C/c2ccc(OCC)cc2)nc1C#N, the AC26 was > 19500 nM (inactive).
In the case of CCOC(=O)C1=C(Cc2ccc(F)cc2)C(=O)c2ccccc2C1=O, the AC26 is reported as 6390 nM.
CCN(CC(=O)Nc1ccccc1-c1ccccc1)Cc1nc2ccccc2c(=O)[nH]1 gave an AC26 of 1470 nM.
Compound Cc1nn(-c2ccccc2)c(Cl)c1/C=C/C(=O)c1ccc(O)cc1 has an AC26 of 5020 nM.
COc1ccc(-n2c(=S)[nH]c3cc(C(=O)Nc4ccc(C)c(F)c4)ccc3c2=O)c(OC)c1 was tested, and the AC26 was 9690 nM.
Compound CCOC(=O)N1CCN(C(=O)c2cc(-c3ccncc3)nc3ccccc23)CC1 has an AC26 of 1410 nM.
In the case of CCOc1ccc(/C=N/NC(=O)c2cc3c(OC)cccc3[nH]2)cc1, the AC26 is reported as 3800 nM.
For Cc1ccc(-c2nc3ncccc3o2)cc1NC(=O)c1ccc([N+](=O)[O-])o1, the AC26 was 4010 nM.
c1cc2c3c(cccc3c1)C(N1CCCCC1)=N2 showed an AC26 of 13700 nM.
COc1cc2c(cc1OC)C(c1ccccc1)N(C(=O)c1ccccc1F)CC2 (stereo not drawn) showed an AC26 of 1100 nM.
For Cc1ccc(C(=O)N2CCC(C(=O)Nc3cccc([N+](=O)[O-])c3)CC2)cc1, the AC26 was 804 nM.
Work on Cc1ccc(NC(=O)c2ccc(Cl)cc2[N+](=O)[O-])nc1 yielded an AC26 of 1080 nM.
Cc1ccc(S/C=C\C(=O)c2ccccc2)cc1 gave an AC26 of 3170 nM.
O=[N+]([O-])c1cc(S(=O)(=O)C(F)(F)F)ccc1Sc1nc2ccccc2[nH]1 showed an AC26 of 4570 nM.
For O=C(Nc1nc2ccccc2c(=O)s1)c1ccco1, the AC26 was 653 nM.
Work on Cc1cc2nnc(SCC(=O)NCc3ccco3)n2c2ccccc12 yielded an AC26 of 1360 nM.
In the case of CCN(CC)c1ccc(/C=C2\C(=O)N(c3nnc(C)c(=O)[nH]3)N=C2C)cc1, the AC26 is reported as 1420 nM.
CCOC(=O)c1c(C)nc2sc3c(=O)n(-c4ccc(C)cc4)cnc3c2c1-c1ccc(OC)cc1 gave an AC26 of 116 nM.
Cc1cc(Nc2cc(Cl)cc(Cl)c2)nc(N)n1 gave an AC26 of 1280 nM.
COc1ccc2c(c1)[C@H]1[C@H](CO2)[C@H](c2ccccc2)[C@]2(C)C(=O)Nc3ccc(Br)cc3C(=O)N12 showed an AC26 of 188 nM.
CCOC(=O)/C=C/C(=O)Nc1ccc(S(=O)(=O)N(C)c2ccccc2)cc1 was tested, and the AC26 was > 5000 nM (inactive).
With CCOC(=O)N1CCN(c2c(NCc3ccc(F)cc3)c(=O)c2=O)CC1 the AC26 was 8400 nM.
Work on O=C(Nc1cccc(NC(=O)c2cccs2)c1)c1ccc([N+](=O)[O-])o1 yielded an AC26 of 1820 nM.
COc1ccc(C(=O)Nc2ccc3[nH]c(-c4cccc(OC)c4)cc(=O)c3c2)cc1 was tested, and the AC26 was 330 nM.
Work on COc1ccc(-c2cc3ccccc3oc2=O)cc1NC(=S)NC(=O)c1ccc2c(c1)OCCO2 yielded an AC26 of 3970 nM.
O=C(NCCCn1ccnc1)c1cc(-c2cccs2)on1 was tested, and the AC26 was 3430 nM.
COc1cc([C@@H]2c3cc4c(cc3[C@@H](OC)[C@H]3COC(=O)[C@H]23)OCO4)cc(OC)c1O showed an AC26 of 501 nM.
With COc1cccc(N2CCN(C(=O)c3[nH]c(C)c(C(C)=O)c3C)CC2)c1 the AC26 was 1680 nM.
